Experimental data from patent US20130079345A1, “[…] ACTIVE DISUBSTITUTED TRIAZINE DERIVATIVES” (BAYER INTELLECTUAL PROPERTY GMBH, priority 2010, published 2013).
Where a name gives a salt, the structure may show the parent alone. One block for each compound: values may come before it.

Key:
[1] = system: LPS-induced TNF alpha release in PBMCs; experiment: TNF alpha release assay; type: cell-based; settings: Homo sapiens, PBMC, 6 h, 1 μg/mL LPS
Experimental: Freshly isolated peripheral blood mononuclear cells (PBMCs) were seeded in 96-well cell culture plates with 200,000 cells in 100 μl cell culture medium (DMEM cell culture medium+glutamine from PAN Biotech GmbH, Aidenbach, Germany) supplemented with 10% fetal calf serum (PAA Laboratories GmbH, Pasching, Austria) per well and incubated overnight at 37° C., 5% CO2. To each well, 100 μL cell culture medium with 2× concentrated test compounds diluted from 10 mM DMSO stocks, or 100 μL DMEM with 0.4% DMSO for control wells, was added. The compounds of general formula (I) summarized in Table 6 were used in this assay. After incubation for 1 h at 37° C., 5% CO2, cells were stimulated with 1 μg/mL LPS (Lipopolysaccharides, Sigma, catalog #L4391-1MG; 1 mg/ml stock solution), or left untreated for negative controls, and plates were incubated for 6 h at 37° C./5% CO2. The cell culture plates were centrifuged at 2000 rpm for 5 minutes, and supernatants were transferred to fresh 96-well polypropylene plates. 25 µL of supernatants were transferred into 96-well-plates of the human TNF alpha-tissue culture kit (Meso Scale Discovery, Gaithersburg, Md., USA), and manufacturer's instructions were followed for analysis of TNF alpha levels. Chemoluminescence was measured in the Mesoscale Sector Imager, and EC50 values were calculated with the software Excel Fit (IDBS, Guildford, UK) from 2-fold dilution series comprising at least 6 concentrations in duplicates.

[2] = system: NF-kappaB reporter gene activation in HEK293 cells; experiment: NF-kappaB reporter assay; type: cell-based; settings: Homo sapiens, 20 ng/ml TNF alpha, 5 h
Experimental: Cells were maintained in RPMI cell culture medium+glutamine (PAN Biotech GmbH, Aidenbach, Germany) supplemented with 10% fetal calf serum (PAA Laboratories GmbH, Pasching, Austria) and grown at 37° C., 5% CO2. HEK293 cells grown to 50% confluence were transfected with the Amaxa® Cell Line Nucleofector® Kit V (Lonza, Basel, Switzerland, catalog #VCA-1003). Transfections were performed according to manufacturer's optimized protocol for transfection of HEK293 cells. In brief, 2×10^5 cells were transfected with 5 μg highly purified plasmid DNA. Cells were transfected with a NF-kappa B reporter plasmid (pNFkBluc), pTALluc for control, or pMAXGFP for transfection control. After transfection, cells were taken up in 500 μL RPMI1640 cell culture medium, incubated for 1 h at 37° C., and 4.5 ml DMEM without phenol red were added per transfection. Transfected cells were seeded in 96 well plates (Greiner Bio-One, Frickenhausen, Germany, catalog #655098) with 100 μL cell suspension per well and incubated for 48 h. To each well, 100 μL DMEM with 2× concentrated compound diluted from 10 mM DMSO stocks, or 100 μL DMEM with 0.4% DMSO for control wells, was added. The compounds of general formula (I) summarized in Table 6 were used in this assay. Cells were stimulated with 20 ng/ml TNF alpha, and plates were incubated for 5 h at 37° C./5% CO2. Cell culture supernatants were removed to leave 100 μl medium per well, followed by addition of 100 μl Bright Glo luciferase assay reagent (Promega, Madison, Wis., USA, catalog #E2620), and shaking for 5 minutes in the dark. Luminescence was measured with a Victor Photospectrometer (Perkin Elmer, Waltham, Mass., USA). […], values were calculated with the software Excel Fit (IDBS, Guildford, UK) from 2-fold dilution series comprising at least 10 concentrations in duplicates.

CDK8/Cyclin C = biological target: T1, CDK8/Cyclin C (Homo sapiens, UniProt P49336); experiment: LanthaScreen Eu Kinase Binding Assay, CDK8; settings: tracer 236, read-out: Affinity (Kd) CDK8
T1 construct: purchased Invitrogen
T1 sequence (P49336 whole entry): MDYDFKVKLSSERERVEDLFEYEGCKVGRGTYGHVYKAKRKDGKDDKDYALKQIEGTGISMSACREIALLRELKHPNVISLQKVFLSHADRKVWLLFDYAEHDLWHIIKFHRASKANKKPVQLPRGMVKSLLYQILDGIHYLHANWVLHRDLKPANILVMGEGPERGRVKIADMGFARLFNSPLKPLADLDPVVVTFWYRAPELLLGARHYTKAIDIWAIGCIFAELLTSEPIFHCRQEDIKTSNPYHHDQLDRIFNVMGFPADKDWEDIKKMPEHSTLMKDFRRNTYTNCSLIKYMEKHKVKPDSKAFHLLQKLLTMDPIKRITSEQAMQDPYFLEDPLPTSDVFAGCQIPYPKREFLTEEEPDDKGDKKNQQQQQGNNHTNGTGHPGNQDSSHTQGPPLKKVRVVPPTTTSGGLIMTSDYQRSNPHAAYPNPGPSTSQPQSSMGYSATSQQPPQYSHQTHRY
T1 sequence (P24863 whole entry partner): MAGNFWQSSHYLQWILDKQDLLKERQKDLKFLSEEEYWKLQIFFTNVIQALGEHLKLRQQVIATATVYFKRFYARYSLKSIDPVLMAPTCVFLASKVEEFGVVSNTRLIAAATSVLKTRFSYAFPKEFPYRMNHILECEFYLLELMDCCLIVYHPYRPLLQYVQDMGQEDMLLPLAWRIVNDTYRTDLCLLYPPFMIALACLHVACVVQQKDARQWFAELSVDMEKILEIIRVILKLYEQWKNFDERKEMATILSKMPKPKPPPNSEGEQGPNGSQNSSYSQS
Experimental: This protocol describes how the LanthaScreen Eu Kinase Binding Assay was performed to determine dissociation constants (Kd) of compounds of general formula (I) and CDK/Cyclin complexes. The principle behind this assay is based upon the binding and displacement of an Alexa Fluor 647-labeled tracer, which binds to the active site of kinases. Binding of the tracer to the kinase is detected using a Eu-labeled antibody. Simultaneous binding of both the tracer and antibody to the kinase gives rise to a FRET-signal. Binding of an inhibitor to the kinase competes for binding with the tracer, resulting in a loss of FRET.
The compounds of general formula (I) summarized in Table 1 were diluted from a 10 mM DMSO stock solution 1:10 in a total volume of 15 μL DMSO. This compound predilution was then serial diluted 1:3 over 8 steps in DMSO and briefly spun down. Each compound solution was now diluted 1:33.33 in kinase buffer (HEPES: 20 mM, pH: 8.0; MgCl2: 10 mM; DTT: 1 mM; Brij-35: 0.01%), mixed thoroughly and spun down. For every sample, 5 μL of the diluted compound were mixed with 5 μL tracer working solution (e.g. 60 nM tracer 236 in kinase buffer for CDK2/Cyclin A) and 5 μL CDK/Cyclin/Anti-GST-AB-working solution (e.g. 15 nM CDK2/Cyclin A, 1:250 dilution of Anti-GST-AB in kinase buffer) in a well of a small volume 384 well plate (Corning Incorporated, Corning, N.Y., USA; order no. 3673). […] For positive controls, in each well 5 μL of DMSO working solution (3% DMSO diluted in kinase buffer) was mixed with 5 μL CDK/Cyclin/Anti-GST-AB-working solution: (e.g. 15 nM CDK2/Cyclin A, 1:250 dilution of Anti-GST-AB in kinase buffer) and 5 μL Tracer working solution (e.g. 60 nM Tracer 236 in kinase buffer for CDK2/Cyclin A). Positive and negative controls were calculated from at least 8 different sample wells. The 384 well plates were mixed in a Teleshaker plate mixer (Beckman Coulter, Brea, Calif., USA) at 2000 rpm for 40 sec, and incubated for 1 h at room temperature before reading. The FRET signal was measured at 340 nm excitation, 665 nm and 615 nm emission (for the kinase tracer and LanthaScreen Eu-AB, respectively) with an Envision spectrophotometer (Perkin Elmer, Waltham, Mass., USA) with 50 μs delay and 300 μs integration time. Kd values were determined from the sigmoidal dose response curves with the software Quattro Workflow (Quattro GmbH, Munich, Germany).

Compound: COc1ccccc1-c1ncnc(Nc2cccc(CS(N)(=O)=O)c2)n1 [B1′, 3-[(4-(2-Methoxyphenyl)-1,3,5-triazin-2-yl)amino]benzenemethanesulfonamide trifluoroacetic acid salt]
IC50 [1]: 2.71 µM | IC50 [2]: 3.56 µM

Kd (CDK8/Cyclin C): > 10 µM
Compound: COc1cc(F)ccc1-c1ncnc(Nc2cccc(CS(N)(=O)=O)c2)n1 [B2″, 1-(3-{[4-(4-fluoro-2-methoxyphenyl)-1,3,5-triazin-2-yl]amino}phenyl)methanesulfonamide trifluoroacetic acid salt]
IC50 [2]: 1.6 µM

Kd (CDK8/Cyclin C): 4.86 µM
Compound: NS(=O)(=O)Cc1cccc(Nc2ncnc(-c3ccccc3OCc3ccccc3)n2)c1 [B13′, 3-[(4-(2-Benzyloxyphenyl)-1,3,5-triazin-2-yl)amino]benzenemethanesulfonamide trifluoroacetic acid salt]
IC50 [1]: 0.12 µM | IC50 [2]: 0.36 µM

Compound: COc1ccccc1-c1ncnc(Nc2cccc(S(N)(=O)=O)c2)n1 [C1′, 3-[(4-(2-Methoxyphenyl)-1,3,5-triazin-2-yl)amino]benzenesulfonamide trifluoroacetic acid salt]
IC50 [1]: 0.5 µM | IC50 [2]: 1.47 µM

Compound: COc1cc(F)ccc1-c1ncnc(Nc2cccc(CS(N)(=O)=O)c2)n1 [Compound B2, 3-[(4-(4-Fluoro-2-methoxyphenyl)-1,3,5-triazin-2-yl)amino]benzenemethanesulfonamide]
IC50 [1]: 1.03 µM

Compound: COc1ccc(F)cc1-c1ncnc(Nc2cccc(CS(N)(=O)=O)c2)n1 [Compound B3, 3-[(4-(5-Fluoro-2-methoxyphenyl)-1,3,5-triazin-2-yl)amino]benzenemethanesulfonamide]
IC50 [1]: 3.24 µM | IC50 [2]: 2.47 µM

Kd (CDK8/Cyclin C): > 10 µM
Compound: COc1cccc(F)c1-c1ncnc(Nc2cccc(CS(N)(=O)=O)c2)n1 [Compound B4, 3-[(4-(6-Fluoro-2-methoxyphenyl)-1,3,5-triazin-2-yl)amino]benzenemethanesulfonamide]
IC50 [1]: 6.53 µM | IC50 [2]: 9.71 µM

Kd (CDK8/Cyclin C): 6.78 µM
Compound: COc1cc(Cl)ccc1-c1ncnc(Nc2cccc(CS(N)(=O)=O)c2)n1 [Compound B6, 3-[(4-(4-Chloro-2-methoxyphenyl)-1,3,5-triazin-2-yl)amino]benzenemethanesulfonamide]
IC50 [2]: 2.49 µM

Kd (CDK8/Cyclin C): > 10 µM
Compound: CCOc1ccccc1-c1ncnc(Nc2cccc(CS(N)(=O)=O)c2)n1 [Compound B12, 3-[(4-(2-Ethoxyphenyl)-1,3,5-triazin-2-yl)amino]benzenemethanesulfonamide]
IC50 [2]: 3.67 µM

Kd (CDK8/Cyclin C): 5.7 µM
Compound: NS(=O)(=O)Cc1cccc(Nc2ncnc(-c3ccccc3Oc3ccccc3)n2)c1 [Compound B14, 1-(3-{[4-(2-phenoxyphenyl)-1,3,5-triazin-2-yl]amino}phenyl)methanesulfonamide]
IC50 [2]: 3.96 µM

Kd (CDK8/Cyclin C): > 10 µM
Compound: NS(=O)(=O)Cc1cccc(Nc2ncnc(-c3ccccc3OCc3ccncc3)n2)c1 [Compound B16, 3-[(4-(2-((4-Pyridinyl)methoxy)phenyl)-1,3,5-triazin-2-yl)amino]benzenemethanesulfonamide]
IC50 [2]: 0.96 µM

Compound: COc1cnccc1-c1ncnc(Nc2cccc(CS(N)(=O)=O)c2)n1 [Compound B19, 3-[(4-(3-Methoxypyridin-4-yl)-1,3,5-triazin-2-yl)amino]benzenemethanesulfonamide]
IC50 [1]: 10.6 µM | IC50 [2]: 19.9 µM

Compound: COc1ccccc1-c1ncnc(Nc2cccc(CCS(N)(=O)=O)c2)n1 [Compound D1, 2-[3-((4-(2-Methoxyphenyl)-1,3,5-triazin-2-yl)amino)phenyl]ethanesulfonamide]
IC50 [1]: 5.37 µM | IC50 [2]: 4.98 µM

Compound: COc1cc(F)ccc1-c1ncnc(Nc2cccc(CCS(N)(=O)=O)c2)n1 [Compound D2, 2-[3-((4-(4-Fluoro-2-methoxyphenyl)-1,3,5-triazin-2-yl)amino)phenyl]ethanesulfonamide]
IC50 [2]: 1.63 µM

Compound: COc1ccccc1-c1ncnc(Nc2cccc([N+](=O)[O-])c2)n1 [Compound H1, 4-(2-Methoxyphenyl)-N-(3-nitrophenyl)-1,3,5-triazine-2-amine]
IC50 [1]: 2.92 µM | IC50 [2]: 2.67 µM

Compound: COc1ccccc1-c1ncnc(Nc2cccc(NS(C)(=O)=O)c2)n1 [Compound K1, N-[3-((4-(2-Methoxyphenyl)-1,3,5-triazin-2-yl)amino)phenyl]-methanesulfonamide]
IC50 [1]: 4.42 µM | IC50 [2]: 5.52 µM

Compound: CCCS(=O)(=O)Nc1cccc(Nc2ncnc(-c3ccccc3OC)n2)c1 [Compound L1, N-[3-((4-(2-Methoxyphenyl)-1,3,5-triazin-2-yl)amino)phenyl]-propanesulfonamide]
IC50 [1]: 2.41 µM | IC50 [2]: 6.53 µM

Compound: COc1ccccc1-c1ncnc(Nc2ccccc2)n1 [Compound P1, 4-(2-Methoxyphenyl)-N-phenyl-1,3,5-triazine-2-amine]
IC50 [1]: 13.9 µM | IC50 [2]: 18.8 µM
